Results reported in patent US9932637B2, “Genetic polymorphisms associated with cardiovascular disorders and drug response, methods of detection and uses thereof” (CELERA CORPORATION, priority 2003, dated 2018).
Several values for one entry are separate records, joined by “and”; a condition that tells them apart may be missing. Equal values may be shown once.

Test system: patients with prior myocardial infarction (CARE study)
Assay: CARE aligned analysis (prospective and case/control design, white males): association of genotypes with pravastatin efficacy (Tables 13, 15)
Type: in vivo, human
Conditions: for 2 Rare Alleles n/total, Pravastatin Patients / 2 Rare Alleles (%), Pravastatin Patients / Pravastatin Patients (%) / Pravastatin Patients n/total: F&NF MI; for 2 rare alleles n/total (%), pravastatin patients / Pravastatin vs placebo odds ratio, 0 rare alleles / Pravastatin vs placebo odds ratio, 1 rare allele / Pravastatin vs placebo odds ratio, 2 rare alleles: CARE, F MI/SD/NF MI; for Pravastatin Patients (%) / Pravastatin Patients n/total: WM
Method: The data presented in Table 8 based on an association of genotypes with pravastatin efficacy of the CARE samples were further analyzed and presented in Table 13. The further analysis was performed to align the data obtained from the analysis of the CARE samples, which was a prospective study, to the analysis of the WOSCOP samples, which was a case/control study. Table 13 also presents an analysis of the association of genotypes with pravastatin efficacy in the WOSCOPs samples. Relative to the analysis performed on the data presented in Table 8, there are two significant differences to determine if the SNP influenced pravastatin efficacy. Data obtained from the CARE samples were separated by study design into two groups, those in the prospective study design group and those in the case/control study design group. The original care study contained 16 protocol defined cardiovascular disease defined endpoints and 150 other phenotypes. […] The control groups used to compare the data were also divided into two groups, the “all possible” control group and the “cleaner” control group. […] Because the participants in the WOSCOPs trial were all white males, only data obtained from white males in the CARE study were analysed. Data from the “all possible” and “cleaner” controls were compared to data obtained from the cases in the prospective study design while only data from “cleaner” controls were compared to cases in the case/control study design. The data from the case/control cohorts were analysed using conditional logistic regression (as opposed to logistic regression used for the original anaylsis).
The anaylsis was refined as described for both Tables 13 and 14.

[1] = F7 hCV783184, CARE Case/Control
[2] = F13A1 hCV11972326, CARE Case/Control
[3] = FABP1 hCV16173091, CARE Case/Control
[4] = FCAR hCV7841842, CARE Case/Control
[5] = FN1 hCV9506149, CARE Case/Control
[6] = GALC hCV25922440, CARE Prospective
[7] = GAPD hCV8921288, CARE Case/Control
[8] = GAPD hCV8921288, CARE Prospective
[9] = HLA-DPB1 hCV8851065, 0 Rare Alleles, CARE Case/Control, All Possible controls
[10] = HLA-DPB1 hCV8851065, 0 Rare Alleles, CARE Case/Control, Cleaner controls
[11] = HLA-DPB1 hCV8851065, 1 Rare Allele, CARE Case/Control, All Possible controls
[12] = HLA-DPB1 hCV8851065, 1 Rare Allele, CARE Case/Control, Cleaner controls
[13] = HLA-DPB1 hCV8851065, Case/Control
[14] = HLA-DPB1 hCV8851065, Prospective
[15] = HLA-DPB1 hCV8851084, 0 Rare Alleles, CARE Case/Control, All Possible controls
[16] = HLA-DPB1 hCV8851084, 0 Rare Alleles, CARE Case/Control, Cleaner controls
[17] = HLA-DPB1 hCV8851084, 0 Rare Alleles, CARE Prospective, Cleaner controls
[18] = HLA-DPB1 hCV8851084, 1 Rare Allele, CARE Case/Control, All Possible controls
[19] = HLA-DPB1 hCV8851084, 1 Rare Allele, CARE Case/Control, Cleaner controls
[20] = HLA-DPB1 hCV8851084, 1 Rare Allele, CARE Prospective, Cleaner controls
[21] = HLA-DPB1 hCV8851084, Case/Control
[22] = HLA-DPB1 hCV8851084, Prospective
[23] = HLA-DPB1 hCV8851085, 0 Rare Alleles, CARE Case/Control, All Possible controls
[24] = HLA-DPB1 hCV8851085, 0 Rare Alleles, CARE Case/Control, Cleaner controls
[25] = HLA-DPB1 hCV8851085, 0 Rare Alleles, CARE Prospective, All Possible controls

CC[C@H](C)C(=O)O[C@H]1C[C@H](O)C=C2C=C[C@H](C)[C@H](CC[C@@H](O)C[C@@H](O)CC(=O)O)[C@H]21 [pravastatin]
2 Rare Alleles n/total, Pravastatin Patients (F7 hCV783138, CARE Prospective): 1/13 and 1/9 | 2 Rare Alleles (%), Pravastatin Patients [1]: (14.3%) | 2 Rare Alleles n/total, Pravastatin Patients [1]: 2/14 | 2 Rare Alleles (%), Pravastatin Patients (F7 hCV783184, CARE Prospective): (14.3%) | 2 Rare Alleles n/total, Pravastatin Patients (F7 hCV783184, CARE Prospective): 2/14 | 2 Rare Alleles (%), Pravastatin Patients [2]: (19.4%) | 2 Rare Alleles n/total, Pravastatin Patients [2]: 14/72 | 2 Rare Alleles (%), Pravastatin Patients [3]: (20.9%) | 2 Rare Alleles n/total, Pravastatin Patients [3]: 19/91 | 2 Rare Alleles n/total, Pravastatin Patients (FABP1 hCV16173091, CARE Prospective): 19/127 and 19/91 | 2 rare alleles n/total (%), pravastatin patients (FCAR hCV7841642, Prospective): (12.5%) | Pravastatin vs placebo odds ratio, 0 rare alleles (FCAR hCV7841642, Prospective): 0.84 | Pravastatin vs placebo odds ratio, 1 rare allele (FCAR hCV7841642, Prospective): 0.27 | Pravastatin vs placebo odds ratio, 2 rare alleles (FCAR hCV7841642, Prospective): 0.43 | 2 Rare Alleles (%), Pravastatin Patients [4]: (12.5%) | 2 Rare Alleles n/total, Pravastatin Patients [4]: 1/8 | 2 Rare Alleles (%), Pravastatin Patients [5]: (13.8%) | 2 Rare Alleles n/total, Pravastatin Patients [5]: 12/87 | 2 Rare Alleles (%), Pravastatin Patients [6]: (14.7%) | 2 Rare Alleles n/total, Pravastatin Patients [6]: 5/34 | 2 rare alleles n/total (%), pravastatin patients (GALC hCV25922440, Prospective): (14.7%) | Pravastatin vs placebo odds ratio, 0 rare alleles (GALC hCV25922440, Prospective): 0.94 | Pravastatin vs placebo odds ratio, 1 rare allele (GALC hCV25922440, Prospective): 0.38 | Pravastatin vs placebo odds ratio, 2 rare alleles (GALC hCV25922440, Prospective): 1.12 | 2 Rare Alleles (%), Pravastatin Patients [7]: (7.5%) | 2 Rare Alleles n/total, Pravastatin Patients [7]: 4/53 and 4/38 | 2 Rare Alleles (%), Pravastatin Patients [8]: (10.5%) | 2 Rare Alleles n/total, Pravastatin Patients [8]: 4/38 | Pravastatin Patients (%) [9]: (10.0%) | Pravastatin Patients n/total [9]: 63/633 | Pravastatin Patients (%) [10]: (14.2%) | Pravastatin Patients n/total [10]: 63/445 | Pravastatin Patients (%) [11]: (10.0%) | Pravastatin Patients n/total [11]: 49/491 | Pravastatin Patients (%) [12]: (14.9%) | Pravastatin Patients n/total [12]: 49/329 | 2 rare alleles n/total (%), pravastatin patients [13]: (14.8%) | Pravastatin vs placebo odds ratio, 0 rare alleles [13]: 0.60 and 0.52 | Pravastatin vs placebo odds ratio, 1 rare allele [13]: 0.87 and 0.80 | Pravastatin vs placebo odds ratio, 2 rare alleles [13]: 5.02 and 5.41 | 2 rare alleles n/total (%), pravastatin patients [14]: (14.8%) | Pravastatin vs placebo odds ratio, 0 rare alleles [14]: 0.62 and 0.55 | Pravastatin vs placebo odds ratio, 1 rare allele [14]: 0.86 and 0.76 | Pravastatin vs placebo odds ratio, 2 rare alleles [14]: 4.85 and 4.94 | Pravastatin Patients (%) [15]: (10.2%) | Pravastatin Patients n/total [15]: 80/785 | Pravastatin Patients (%) [16]: (14.7%) | Pravastatin Patients n/total [16]: 80/546 | Pravastatin Patients (%) [17]: (14.4%) | Pravastatin Patients n/total [17]: 80/556 | Pravastatin Patients (%) [18]: (10.1%) | Pravastatin Patients n/total [18]: 39/385 | Pravastatin Patients (%) [19]: (14.9%) | Pravastatin Patients n/total [19]: 39/262 | Pravastatin Patients (%) [20]: (14.7%) | Pravastatin Patients n/total [20]: 39/265 | 2 Rare Alleles (%), Pravastatin Patients (HLA-DPB1 hCV8851084, CARE Prospective): (25.0%) | 2 rare alleles n/total (%), pravastatin patients [21]: (22.6%) | Pravastatin vs placebo odds ratio, 0 rare alleles [21]: 0.60 | Pravastatin vs placebo odds ratio, 1 rare allele [21]: 0.84 | Pravastatin vs placebo odds ratio, 2 rare alleles [21]: 5.83 | 2 rare alleles n/total (%), pravastatin patients [22]: (22.6%) | Pravastatin vs placebo odds ratio, 0 rare alleles [22]: 0.61 | Pravastatin vs placebo odds ratio, 1 rare allele [22]: 0.82 | Pravastatin vs placebo odds ratio, 2 rare alleles [22]: 4.81 | Pravastatin Patients (%) [23]: (10.1%) | Pravastatin Patients n/total [23]: 74/733 | Pravastatin Patients (%) [24]: (14.4%) | Pravastatin Patients n/total [24]: 74/513 | Pravastatin Patients (%) [25]: (9.9%) | Pravastatin Patients n/total [25]: 74/747
